From patent publication US11524010B2, “Substituted quinazoline sulfonamides as thioredoxin interacting protein (TXNIP) inhibitors” (SOUTHERN RESEARCH INSTITUTE, priority 2017, dated 2022)
Entries after “also recorded” stand apart in the source; their conditions may differ.

What was measured:
INS-1 cells = assay: INS-1 cell viability (Cell Titer-Glo, ATP); format: cell-based, Rat; conditions: 72 hrs treatment, hydrochloride
Method: (§1) INS-1 cell viability was determined based on quantification of ATP using Cell Titer-Glo Luminescent Cell Viability Assay kit (Promega #G7572), which indicates the presence of metabolically active cells. Briefly, INS-1 cells were seeded into 96-well plates at a cell density of 4.5×10^4 and 3.5×10^4 cells per well and incubated overnight at 37° C. with 5% CO2. On the following day, cells were treated with compounds for 24 hrs and 72 hrs respectively. Cell Titer-Glo reagent was added to the cells and Luminescence was acquired on Synergy 4 Reader ([…]).

db/db mice = assay: Obese diabetic db/db mice (Type 2 diabetes model); format: in vivo; conditions: oral, 4 weeks
Method: Obese, insulin-resistant and diabetic, leptin receptor-deficient db/db mice were administered compound #11a as described above for 4 weeks. […] In addition, they can lower liver and serum lipid levels

TXNIP [1] = assay: Inhibition of glucose-induced endogenous TXNIP expression in INS-1 cells (qRT-PCR); format: cell-based, Rat; conditions: 25 mM glucose; for inhibition at 1.5 µM / inhibition at 12.5 µM: Rattus norvegicus, INS1, 24 h
Method: The Rat INS-1 cell line was obtained from UAB and maintained in RPMI-1640 (Invitrogen #11875) supplemented with 10% fetal bovine serum (FBS), 100 U/ml penicillin and […] streptomycin, 10 mM HEPES, 1 mM Sodium Pyruvate, 50 μM 2-Mercaptoethanol, and 11.1 mM Glucose in a humidified incubator with a 5% C02 atmosphere at 37° C. 4×10^4 cells per well were seeded to 96-well plate and incubated at 37° C. overnight. A subset of the cells were then cultured in medium with 5 mM Glucose for 24 hrs and then treated in medium with 25 mM glucose with or without compounds to be tested for another 24 hrs.
For the primary high throughput screening (HTS) assay, stably transfected, monoclonal INS-1 cells were split using Trypsin (2 ml per T75 flask) and seeded at a density of 10^4/well in a 384-well plate and incubated overnight at low, 5 mM glucose. The next day, the medium was changed to high glucose (25 mM) or high glucose plus the small molecules to be tested and luciferase assays were performed 24 h later. […] For secondary screens, total RNA was extracted from 96-well cultured cells using RNeasy 96 kit (Qiagen #74181) following the manufacturer's protocol using spin technology. Then a one-step qRT-PCR amplification was performed using QuantiFast SYBR Green RT-PCR kit (Qiagen #204154) and was carried out in a 10 μl reaction which consisted of 2 μl RNA, 0.5 μM each of primers (Rat TXNIP 5′ primer: […] (SEQ ID NO:1) and Rat TXNIP 3′ primer: […] (SEQ ID NO:2); Or Rat 18S rRNA 5′ primer: […] (SEQ ID NO:3) and Rat 18S rRNA 3′ primer: […]) (SEQ ID NO:4), 5 μl 2×SYBR Green Master Mix, 0.1 μl 10× QuantiFast RT Mix. The SYBR Green assay was performed using a LightCycler 480 II (Roche Applied Science) with an initial incubation at 50° C. for 10 min for RT followed by denaturation at 95° C. for 5 min. Forty cycles of amplification were performed using a thermal cycling profile of 95° C. for 10s, 60° C. for 30 s. Subsequently, a melting curve was recorded by holding at 95° C. for 60 s, cooling to 60° C. for 60 s, and then heating at 0.11° C./s up to 95° C. The data was collected and analyzed using the LightCycler 480 Software Release 1.5.0 SP3. The relative amount of TXNIP mRNA was normalized to 18 s rRNA level as a housekeeping gene, and the data was analyzed according to the 2^−ΔΔCT method (1). The transformed data was expressed as % inhibition and compound IC50 calculated by a 4-parameter logistic fit of the data using GraphPad Prism 7.

alpha TC1-6 cells = assay: Glucagon secretion of alpha TC1-6 cells; format: cell-based; conditions: incubation of alpha TC1-6 cells with compound
STZ-diabetic mice = assay: Multiple low-dose STZ-induced diabetes in mice; format: in vivo
Method: After having been rendered overtly diabetic by multiple low-dose STZ injections, mice received compound #11a by gavage at a dose of 100 mg/kg b.i.d or 30 mg/kg b.i.d. or received a vehicle control.

wild-type mice = assay: Oral administration to wild-type mice (glucose, glucagon, hepatic glucose production, lipids); format: in vivo
Method: Compound #11a was administered for three weeks in the drinking water of wild-type mice at about 100 mg/kg/d.
Further studies of hepatic glucose production and whole body glucose turnover, i.e., peripheral glucose uptake into muscle and adipose tissue, were performed using hyperinsulinemic-euglycemic clamp studies.

[2] = INS-1 cell viability (Cell Titer-Glo, ATP); format: cell-based, Rat; conditions: rat, INS-1 cells, 72 hrs treatment
Method: as §1

TXNIP [3] = assay: TXNIP expression in isolated primary human islets; format: cell-based
Method: (§2) Isolated primary human islets were cultured in the presence or absence of compound #11 (Table 1).

primary human islets = assay: Cytokine-induced β-cell apoptosis in primary human islets; format: cell-based; conditions: Type 1 diabetes associated cytokines
Method: as §2

[4] = vs untreated db/db, hydrochloride
[5] = about 100 mg/kg/d in drinking water, three weeks

CS(=O)(=O)NCC1CCCN(c2ncnc3ccc(C(F)(F)F)cc23)C1.Cl (centres unmarked) [Compound 11a, N-((1-(6-(trifluoromethyl)quinazolin-4-yl)piperidin-3-yl)methyl)methanesulfonamide hydrochloride]
CC50 (INS-1 cells): > 100 µM
fasting serum glucagon levels (db/db mice): significant decrease
blood glucose levels (db/db mice; [4]): significantly lower; also recorded: decreased significantly
body weight (db/db mice; [4]): no significant effect; also recorded: no difference
TXNIP % Inhibition at 1.5 μM (TXNIP [1]; 1.5 μM compound, 24 hrs): 35%
TXNIP % Inhibition at 12.5 μM (TXNIP [1]; 12.5 μM compound, 24 hrs): 57%
glucagon secretion (alpha TC1-6 cells): decreased
blood glucose levels (STZ-diabetic mice; STZ (day 1-5) wild-type mice, oral compound day 5-15, vs untreated STZ mice): significantly lower
body weight (STZ-diabetic mice; STZ-treated mice, oral 100 mg/kg/d, hydrochloride, 100 mg/kg/day): no detrimental effect; also recorded: maintained a normal body weight
detrimental effects or abnormalities (STZ-diabetic mice; STZ-treated mice, oral 100 mg/kg/d, throughout experiment, sacrifice and dissection): no detrimental effects or abnormalities
protection against diabetes (STZ-diabetic mice; oral 100 mg/kg/d starting after multiple low-dose STZ regimen): effectively protected
blood glucose levels (STZ-diabetic mice; overtly diabetic STZ mice, gavage 100 mg/kg b.i.d or 30 mg/kg b.i.d., vs vehicle): significantly decreased in a dose-dependent manner
blood glucose levels (wild-type mice; [5]): small but significant decrease
body weight (wild-type mice; [5]): no change
gross abnormalities in organs upon sacrifice (wild-type mice; [5]): no gross abnormalities
fasting serum glucagon levels (wild-type mice; about 100 mg/kg/d in drinking water, vs control): decreased
basal hepatic glucose production (wild-type mice; hyperinsulinemic-euglycemic clamp, vs control): significant decrease
liver triglyceride levels (wild-type mice; oral, vs control): two-fold lower
serum non-esterified fatty acids (wild-type mice; oral, vs control): significantly lower
serum triglycerides (wild-type mice; oral, vs control): significantly lower

N#Cc1cc2ncnc(N3CCCC(CNS(=O)(=O)C(F)(F)F)C3)c2cc1F (centres unmarked) [Compound 53, N-((1-(7-cyano-6-fluoroquinazolin-4-yl)piperidin-3-yl)methyl)-1,1,1-trifluoromethanesulfonamide]
CC50 at 72 h [2]: > 100 µM
inhibition at 1.5 µM (TXNIP [1]; 1.5 μM compound): 7%
inhibition at 12.5 µM (TXNIP [1]; 12.5 μM compound): 24%

CS(=O)(=O)NCC1CCCCN1c1ncnc2cc(C#N)c(F)cc12 (centres unmarked) [Compound 43, N-((1-(7-cyano-6-fluoroquinazolin-4-yl)piperidin-2-yl)methyl)methane-sulfonamide]
CC50 at 72 h [2]: > 100 µM
inhibition at 1.5 µM (TXNIP [1]; 1.5 μM compound): 0%
inhibition at 12.5 µM (TXNIP [1]; 12.5 μM compound): 16%

CS(=O)(=O)NC1CCCN(c2ncnc3ccc(F)cc23)C1 (centres unmarked) [Compound 34, N-(1-(6-fluoroquinazolin-4-yl)piperidin-3-yl)methanesulfonamide]
CC50 at 72 h [2]: 33 µM
inhibition at 1.5 µM (TXNIP [1]; 1.5 μM compound): 56%
inhibition at 12.5 µM (TXNIP [1]; 12.5 μM compound): 61%

CS(=O)(=O)NC1CCCN(c2ncnc3ccc(Cl)cc23)C1 (centres unmarked) [Compound 35, N-(1-(6-chloroquinazolin-4-yl)piperidin-3-yl)methanesulfonamide]
CC50 at 72 h [2]: 41 µM
inhibition at 1.5 µM (TXNIP [1]; 1.5 μM compound): 38%
inhibition at 12.5 µM (TXNIP [1]; 12.5 μM compound): 64%

CS(=O)(=O)NCC1CCCN(c2ncnc3ccc(C#N)cc23)C1 (centres unmarked) [Compound 13, N-((1-(6-cyanoquinazolin-4-yl)piperidin-3-yl)methyl)methanesulfonamide]
CC50 at 72 h [2]: 42 µM
inhibition at 1.5 µM (TXNIP [1]; 1.5 μM compound): 41%
inhibition at 12.5 µM (TXNIP [1]; 12.5 μM compound): 1%

CS(=O)(=O)NCC1CCCN(c2nc(-c3ccccc3)nc3ccccc23)C1 (centres unmarked) [Compound 9, N-((1-(2-phenylquinazolin-4-yl)piperidin-3-yl)methyl)methanesulfonamide]
CC50 at 72 h [2]: 71 µM
inhibition at 1.5 µM (TXNIP [1]; 1.5 μM compound): 0%
inhibition at 12.5 µM (TXNIP [1]; 12.5 μM compound): 10%

CS(=O)(=O)NCC1CCCN(c2ncnc3ccc(C(=O)O)cc23)C1 (centres unmarked) [Compound 19, 4-(3-(methylsulfonamidomethyl)piperidin-1-yl)quinazoline-6-carboxylic acid]
CC50 at 72 h [2]: > 100 µM
inhibition at 1.5 µM (TXNIP [1]; 1.5 μM compound): 0%
inhibition at 12.5 µM (TXNIP [1]; 12.5 μM compound): 5%

O=S(=O)(NCC1CCCN(c2ncnc3ccc(C(F)(F)F)cc23)C1)c1ccc(Cl)cc1 (centres unmarked) [Compound 56, 4-chloro-N-((1-(6-(trifluoromethyl)quinazolin-4-yl)piperidin-3-yl)methyl)benzenesulfonamide]
CC50 at 72 h [2]: 17 µM
inhibition at 1.5 µM (TXNIP [1]; 1.5 μM compound): 19%
inhibition at 12.5 µM (TXNIP [1]; 12.5 μM compound): 30%

COc1ccc2ncnc(N3CCCC(CN(C(C)C)S(=O)(=O)c4ccccc4)C3)c2c1 (centres unmarked) [Compound 41, N-isopropyl-N-((1-(6-methoxyquinazolin-4-yl)piperidin-3-yl)methyl)benzene-sulfonamide]
CC50 at 72 h [2]: 7 µM
inhibition at 1.5 µM (TXNIP [1]; 1.5 μM compound): 36%
inhibition at 12.5 µM (TXNIP [1]; 12.5 μM compound): 65%

CS(=O)(=O)NCC1CN(c2ncnc3ccc(F)cc23)CCO1 (centres unmarked) [Compound 46, N-((4-(6-fluoroquinazolin-4-yl)morpholin-2-yl)methyl)methanesulfonamide]
CC50 at 72 h [2]: > 100 µM
inhibition at 1.5 µM (TXNIP [1]; 1.5 μM compound): 0%
inhibition at 12.5 µM (TXNIP [1]; 12.5 μM compound): 55%

CS(=O)(=O)NCC1CCN(c2ncnc3ccc(F)cc23)C1 (centres unmarked) [Compound 51, N-((1-(6-fluoroquinazolin-4-yl)pyrrolidin-3-yl)methyl)methanesulfonamide]
CC50 at 72 h [2]: > 100 µM
inhibition at 1.5 µM (TXNIP [1]; 1.5 μM compound): 18%
inhibition at 12.5 µM (TXNIP [1]; 12.5 μM compound): 20%

CS(=O)(=O)NCC1CCCN(c2ncnc3ccc(NC(=O)c4ccccn4)cc23)C1 (centres unmarked) [Compound 28, N-(4-(3-(methylsulfonamidomethyl)piperidin-1-yl)quinazolin-6-yl)picolinamide]
CC50 at 72 h [2]: > 100 µM
inhibition at 1.5 µM (TXNIP [1]; 1.5 μM compound): 4%
inhibition at 12.5 µM (TXNIP [1]; 12.5 μM compound): 5%

CS(=O)(=O)NCC1CCCN(c2ncnc3ccc(C(F)(F)F)cc23)C1 (centres unmarked) [Compound 11, N-((1-(6-(trifluoromethyl)quinazolin-4-yl)piperidin-3-yl)methyl)methanesulfonamide]
CC50 at 72 h [2]: 56 µM
inhibition at 1.5 µM (TXNIP [1]; 1.5 μM compound): 45%
inhibition at 12.5 µM (TXNIP [1]; 12.5 μM compound): 53%
pro-inflammatory cytokine-induced TXNIP expression (TXNIP [3]; Type 1 diabetes associated cytokines): protected
glucose-induced TXNIP expression (TXNIP [3]; high glucose, vs DMSO control): inhibition of TXNIP expression; also recorded: specifically inhibited
cytokine-induced β-cell apoptosis / death (primary human islets): inhibits; also recorded: protected

O=S(=O)(NCC1CCCN(c2ncnc3ccc(F)cc23)C1)C1CC1 (centres unmarked) [Compound 58, N-((1-(6-fluoroquinazolin-4-yl)piperidin-3-yl)methyl)cyclopropanesulfonamide]
CC50 at 72 h [2]: 57 µM
inhibition at 1.5 µM (TXNIP [1]; 1.5 μM compound): 15%
inhibition at 12.5 µM (TXNIP [1]; 12.5 μM compound): 65%
